Values of other authors as cited in patent US5986061A (priority 1995, dated 1999).

B1: Hu-IFN-gamma: human immune (gamma) interferon (protein, UniProt P01579 24-161, looked up)
Interferon gamma: QDPYVKEAENLKKYFNAGHSDVADNGTLFLGILKNWKEESDRKIMQSQIVSFYFKLFKNFKDDQSIQKSVETIKEDMNVKFFNSNKKKRDDFEKLTNYSVTDLNVQRKAIHELIQVMAELSPAAKTGKRKRSQMLFRG

How the values were obtained:
[1] = system: vesicular stomatitis virus and bovine MDBK cells; details: literature (16, 28, 63); cited from earlier work
[2] = target: T1, Hu-IFN-α/β receptor on bovine MDBK cells (Bos taurus, UniProt Q04790+Q95141); details: literature (16, 28, 63); cited from earlier work
T1 construct: endogenous in cells; host or cells: MDBK
T1 sequence (Q04790 25-560): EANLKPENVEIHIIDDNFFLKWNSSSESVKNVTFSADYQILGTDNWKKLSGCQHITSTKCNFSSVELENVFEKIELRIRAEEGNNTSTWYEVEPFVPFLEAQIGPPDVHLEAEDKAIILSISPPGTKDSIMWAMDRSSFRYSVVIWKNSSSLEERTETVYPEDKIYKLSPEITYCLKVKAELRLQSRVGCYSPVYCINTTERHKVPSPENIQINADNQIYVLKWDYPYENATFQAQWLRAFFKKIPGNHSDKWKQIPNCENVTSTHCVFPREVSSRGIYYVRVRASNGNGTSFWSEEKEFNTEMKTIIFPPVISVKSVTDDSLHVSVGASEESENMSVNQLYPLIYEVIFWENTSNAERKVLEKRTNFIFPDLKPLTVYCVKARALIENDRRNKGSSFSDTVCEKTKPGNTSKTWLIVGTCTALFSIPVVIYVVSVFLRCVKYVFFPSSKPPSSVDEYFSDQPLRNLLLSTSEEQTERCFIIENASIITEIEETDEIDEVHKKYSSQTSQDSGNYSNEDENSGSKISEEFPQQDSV
T1 sequence (Q95141 27-530): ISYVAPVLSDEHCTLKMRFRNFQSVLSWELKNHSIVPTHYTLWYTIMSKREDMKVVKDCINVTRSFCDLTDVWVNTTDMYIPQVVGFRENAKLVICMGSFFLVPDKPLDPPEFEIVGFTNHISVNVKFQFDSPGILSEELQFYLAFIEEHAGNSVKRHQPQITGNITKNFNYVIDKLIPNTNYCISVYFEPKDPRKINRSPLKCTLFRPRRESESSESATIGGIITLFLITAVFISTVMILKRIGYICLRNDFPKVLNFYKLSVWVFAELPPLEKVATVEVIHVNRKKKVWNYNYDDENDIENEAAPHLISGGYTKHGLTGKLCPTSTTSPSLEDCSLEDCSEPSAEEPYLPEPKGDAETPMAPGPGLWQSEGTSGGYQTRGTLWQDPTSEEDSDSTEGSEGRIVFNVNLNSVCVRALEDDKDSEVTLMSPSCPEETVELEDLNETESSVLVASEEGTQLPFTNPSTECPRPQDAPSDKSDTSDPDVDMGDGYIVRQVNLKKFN

| Molecule | antiviral activity on MDBK cell line [1] | binding to MDBK cell line [2] |
| --- | --- | --- |
| Hu-IFN-gamma: human immune (gamma) interferon | does not |  |
| B1 |  | does not |
